Source: patent US11919908B2, “Substituted pyrrolo[2,3-d]pyrimidine compounds as JAK2 V617F inhibitors” (Incyte Corporation, priority 2020, dated 2024)

Columns and labels:
[1] = biological target: T1, pseudo-kinase domain (JH2) of human V617F mutant JAK2 (Homo sapiens, UniProt O60674, F794H/V617F/W659A/W777A); assay: JAK2 LanthaScreen JH2-V617F Binding Assay; conditions: 50 nM Fluorescent JAK2-JH2 Tracer, 1 hour at 25° C.
T1 construct: pseudo-kinase domain (JH2, amino-acids 536-812 with 3 surface mutations W659A, W777A, F794H); His (C); purchased BPS Bioscience 79498; host or cells: baculovirus expression system
Method: (§1) Example C. JAK2 LanthaScreen JH2-V617F Binding Assay JAK2 JH2-V617F binding assay utilizes pseudo-kinase domain (JH2, amino-acids 536-812 with 3 surface mutations […]) of human V617F mutant JAK2 expressed as C-terminal His-Avi-tagged, biotinylated protein in a baculovirus expression system (BPS Bioscience, Catalog #79498). The assay was conducted in black 384-well polystyrene plates in a final reaction volume of 20 μL. JAK2 JH2-V617F (0.26 nM) was incubated with compounds (100 nL serially diluted in DMSO) in the presence of 50 nM Fluorescent JAK2-JH2 Tracer (MedChem Express Catalog #HY-102055) and 0.25 nM Streptavidin-Tb cryptate (Cisbio Part #610SATLB) in assay buffer (50 mM Tris, pH=7.5, 10 mM MgCl2, 0.01% Brij-35, 0.1% BSA, 1 mM EGTA, 5% Glycerol and 5 mM DTT). Non-specific binding was accessed in the presence of 2 mM ATP. After incubation for 1 hour at 25° C., LanthaScreen signals were read on a PHERAstar FS plate reader (BMG LABTECH). Data was analyzed with IDBS XLfit and GraphPad Prism 5.0 software using a four parameter dose response curve to determine IC50 for each compound.

[2] = biological target: T2, pseudo-kinase domain (JH2) of human Wild Type JAK2 (Homo sapiens, UniProt O60674, F794H/W659A/W777A); assay: JAK2 LanthaScreen JH2-WT Binding Assay; conditions: 50 nM Fluorescent JAK2-JH2 Tracer, 1 hour at 25° C.
T2 construct: pseudo-kinase domain (JH2, amino-acids 536-812 with 3 surface mutations W659A, W777A, F794H); His (C); purchased BPS Bioscience 79463; host or cells: baculovirus expression system
Method: as §1, with “Example B.” for “Example C.”, “LanthaScreen JH2-WT” for “LanthaScreen JH2-V617F”, “JAK2 JH2-WT” for “JAK2 JH2-V617F”, “human Wild Type” for “human V617F mutant”, “Catalog #79463).” for “Catalog #79498).”, “JAK2 JH2-WT (0.145” for “JAK2 JH2-V617F (0.26”

[3] = biological target: T3, catalytic domain (JH1) of human JAK2 (Homo sapiens, UniProt O60674); assay: JAK2 LanthaScreen JH1 Binding Assay; conditions: 50 nM Fluorescent JAK2-JH1 Tracer, 2 hours at 25° C.
T3 construct: catalytic domain (JH1, amino acids 826-1132) of human JAK2; FLAG (N); purchased Carna Biosciences 08-445-20N; host or cells: baculovirus expression system
Method: Example A. JAK2 LanthaScreen […] Binding Assay JAK2 JH1 binding assay utilizes catalytic domain (JH1, amino acids 826-1132) of human JAK2 expressed as N-terminal FLAG-tagged, biotinylated protein in a baculovirus expression system (Carna Biosciences, Product #08-445-20N). The assay was conducted in black 384-well polystyrene plates in a final reaction volume of 20 μL. JAK2 JH1 (1.5 nM) was incubated with compounds (100 nL serially diluted in DMSO) in the presence of 50 nM Fluorescent JAK2-JH1 Tracer and 0.5 nM Streptavidin-Tb cryptate (Cisbio Part #610SATLB) in assay buffer (50 mM Tris, pH=7.5, 10 mM MgCl2, 0.01% Brij-35, 0.1% BSA, 1 mM EGTA, 5% Glycerol and 5 mM DTT). Non-specific binding was accessed in the presence of 2 mM ATP. After incubation for 2 hours at 25° C., LanthaScreen signals were read on a PHERAstar FS plate reader (BMG LABTECH). Data was analyzed with IDBS XLfit and GraphPad Prism 5.0 software using a four parameter dose response curve to determine IC50 for each compound.

T1 sequence (O60674 536-812 V617F/W659A/W777A/F794H): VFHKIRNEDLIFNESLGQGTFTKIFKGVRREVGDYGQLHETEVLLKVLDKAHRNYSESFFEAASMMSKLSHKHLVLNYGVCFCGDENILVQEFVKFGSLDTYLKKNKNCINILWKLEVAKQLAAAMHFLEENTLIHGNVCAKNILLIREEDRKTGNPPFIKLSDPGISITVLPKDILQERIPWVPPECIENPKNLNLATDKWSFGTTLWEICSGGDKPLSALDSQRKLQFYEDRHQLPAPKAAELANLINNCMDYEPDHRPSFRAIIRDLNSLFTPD
T3 sequence (O60674 826-1132): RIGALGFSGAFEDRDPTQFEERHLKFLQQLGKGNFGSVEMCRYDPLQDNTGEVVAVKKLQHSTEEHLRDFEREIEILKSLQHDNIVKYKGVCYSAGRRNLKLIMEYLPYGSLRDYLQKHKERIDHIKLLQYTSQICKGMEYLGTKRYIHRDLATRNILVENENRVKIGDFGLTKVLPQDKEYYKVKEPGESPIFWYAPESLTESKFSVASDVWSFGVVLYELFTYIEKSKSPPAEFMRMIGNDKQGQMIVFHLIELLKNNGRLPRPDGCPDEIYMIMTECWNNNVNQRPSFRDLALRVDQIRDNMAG
T2 sequence (O60674 536-812 W659A/W777A/F794H): as the sequence (O60674 536-812 V617F/W659A/W777A/F794H) above, with F82V counted along it

`CN(C)S(=O)(=O)c1ccc(-c2[nH]c3nc(N)[nH]c(=O)c3c2-c2ccccc2Cl)cc1` [Example 5, 4-(2-Amino-5-(2-chlorophenyl)-4-oxo-4,7-dihydro-3H-pyrrolo[2,3-d]pyrimidin-6-yl)-N,N-dimethylbenzene sulfonamide] was tested. Which IC50 [1] did it give?
Its IC50 is 1000 to 2500 nM.

What about the IC50 [2] of the same compound?
The IC50 was 1000 to 2500 nM.

What about the IC50 [3] of the same compound?
Its IC50 is greater than 2500 nM.

Which IC50 [1] does the source give for `CN1CCC(c2ccc(-c3c(-c4ccc(S(=O)(=O)N(C)C)cc4)[nH]c4nc(N)[nH]c(=O)c34)cc2)CC1` [Example 8, 4-(2-Amino-5-(4-(1-methylpiperidin-4-yl)phenyl)-4-oxo-4,7-dihydro-3H-pyrrolo[2,3-d]pyrimidin-6-yl)-N,N-dimethylbenzene sulfonamide] here?
The IC50 was 1000 to 2500 nM.

And the IC50 [2]?
Its IC50 is 1000 to 2500 nM.

What about the IC50 [3] of the same compound?
The IC50 was greater than 2500 nM.

For `Nc1nc2[nH]c(-c3ccccc3)c(-c3ccccc3OC(F)F)c2c(=O)[nH]1` [Example 1, 2-Amino-5-(2-(difluoromethoxy)phenyl)-6-phenyl-3,7-dihydro-4H-pyrrolo[2,3-d]pyrimidin-4-one], which IC50 [1] is on record?
Its IC50 is greater than 2500 nM.

What about the IC50 [2] of the same compound?
The IC50 was greater than 2500 nM.

And the IC50 [3]?
The IC50 was greater than 2500 nM.

How did the IC50 [1] turn out when `COc1nn(Cc2ccc(C(=O)O)cc2)cc1-c1c(-c2ccc(S(=O)(=O)N(C)C)cc2)[nH]c2nc(N)[nH]c(=O)c12` [Example 50] was run?
Its IC50 is no more than 100 nM.

What about the IC50 [2] of the same compound?
The IC50 was no more than 100 nM.

And the IC50 [3]?
Its IC50 is greater than 2500 nM.

What does the source list for `CN(C)S(=O)(=O)c1ccc(-c2[nH]c3nc(N)[nH]c(=O)c3c2-c2cccc3ccoc23)cc1` [Example 3, 4-(2-Amino-5-(benzofuran-7-yl)-4-oxo-4,7-dihydro-3H-pyrrolo[2,3-d]pyrimidin-6-yl)-N,N-dimethylbenzenesulfonamide]?
IC50 [1]: 100 to 500 nM; IC50 [2]: 100 to 500 nM; IC50 [3]: > 2500 nM

`CN(C)S(=O)(=O)c1ccc(-c2[nH]c3nc(N)[nH]c(=O)c3c2-c2cccc(CN)c2)cc1` [Example 45, 4-(2-Amino-5-(3-(aminomethyl)phenyl)-4-oxo-4,7-dihydro-3H-pyrrolo[2,3-d]pyrimidin-6-yl)-N,N-dimethylbenzenesulfonamide] was tested. Which IC50 [1] did it give?
The IC50 was greater than 2500 nM.

And the IC50 [2]?
Its IC50 is 1000 to 2500 nM.

And the IC50 [3]?
The IC50 was greater than 2500 nM.

What does the source list for `COc1c(Cl)cccc1-c1c(-c2ccc(S(=O)(=O)N(C)C)cc2)[nH]c2nc(N)[nH]c(=O)c12` [Example 40, 4-(2-Amino-5-(3-chloro-2-methoxyphenyl)-4-oxo-4,7-dihydro-3H-pyrrolo[2,3-d]pyrimidin-6-yl)-N,N-dimethylbenzene sulfonamide]?
IC50 [1]: > 2500 nM; IC50 [2]: > 2500 nM; IC50 [3]: > 2500 nM

`Cc1cccc(-c2c(-c3ccc(C(=O)N(C)C)cc3)[nH]c3nc(N)[nH]c(=O)c23)c1` [Example 60, 4-(2-Amino-4-oxo-5-(3-tolyl)-4,7-dihydro-3H-pyrrolo[2,3-d]pyrimidin-6-yl)-N,N-dimethylbenzamide] was tested. Which IC50 [1] did it give?
Its IC50 is 500 to 1000 nM.

What about the IC50 [2] of the same compound?
The IC50 was 500 to 1000 nM.

What about the IC50 [3] of the same compound?
Its IC50 is greater than 2500 nM.

`COc1ccc(C(F)(F)F)cc1-c1c(-c2ccc(S(=O)(=O)N(C)C)cc2)[nH]c2nc(N)[nH]c(=O)c12` [Example 24, 4-(2-Amino-5-(2-methoxy-5-(trifluoromethyl)phenyl)-4-oxo-4,7-dihydro-3H-pyrrolo[2,3-d]pyrimidin-6-yl)-N,N-dimethylbenzene sulfonamide] was tested. Which IC50 [1] did it give?
Its IC50 is 1000 to 2500 nM.

What about the IC50 [2] of the same compound?
Its IC50 is 1000 to 2500 nM.

What about the IC50 [3] of the same compound?
Its IC50 is greater than 2500 nM.

How did the IC50 [1] turn out when `COc1ccccc1-c1c(-c2ccc(S(=O)(=O)N(C)C)cc2)[nH]c2nc(N)[nH]c(=O)c12` [Example 65, 4-(2-Amino-5-(2-methoxyphenyl)-4-oxo-4,7-dihydro-3H-pyrrolo[2,3-d]pyrimidin-6-yl)-N,N-dimethylbenzene-sulfonamide] was run?
Its IC50 is 100 to 500 nM.

What about the IC50 [2] of the same compound?
Its IC50 is 100 to 500 nM.

And the IC50 [3]?
The IC50 was greater than 2500 nM.

`CNC(=O)c1ccc(-c2c(-c3ccc(S(=O)(=O)N(C)C)cc3)[nH]c3nc(N)[nH]c(=O)c23)cc1` [Example 11, 4-(2-Amino-6-(4-(N,N-dimethyl-sulfamoyl)phenyl)-4-oxo-4,7-dihydro-3H-pyrrolo[2,3-d]pyrimidin-5-yl)-N-methylbenzamide] was tested. Which IC50 [1] did it give?
Its IC50 is 100 to 500 nM.

And the IC50 [2]?
Its IC50 is 100 to 500 nM.

And the IC50 [3]?
Its IC50 is 1000 to 2500 nM.

Which IC50 [1] does the source give for `Cc1cccc(-c2c(-c3ccc(S(=O)(=O)N(C)C)cc3)[nH]c3nc(N)[nH]c(=O)c23)c1` [Example 2, 4-(2-Amino-4-oxo-5-(3-tolyl)-4,7-dihydro-3H-pyrrolo[2,3-d]pyrimidin-6-yl)-N,N-dimethylbenzenesulfonamide] here?
Its IC50 is 500 to 1000 nM.

What about the IC50 [2] of the same compound?
The IC50 was 500 to 1000 nM.

What about the IC50 [3] of the same compound?
Its IC50 is 1000 to 2500 nM.

What does the source list for `CN(C)S(=O)(=O)c1ccc(-c2[nH]c3nc(N)[nH]c(=O)c3c2-c2cccc3c2OC(F)(F)O3)cc1` [Example 12, 4-(2-Amino-5-(2,2-difluorobenzo[d] [1,3]dioxol-4-yl)-4-oxo-4,7-dihydro-3H-pyrrolo[2,3-d]pyrimidin-6-yl)-N,N-dimethylbenzene sulfonamide]?
IC50 [1]: > 2500 nM; IC50 [2]: > 2500 nM; IC50 [3]: 1000 to 2500 nM

Which IC50 [1] does the source give for `COc1ncccc1-c1c(-c2ccc(S(=O)(=O)N(C)C)cc2)[nH]c2nc(N)[nH]c(=O)c12` [Example 28, 4-(2-Amino-5-(2-methoxy-pyridin-3-yl)-4-oxo-4,7-dihydro-3H-pyrrolo[2,3-d]pyrimidin-6-yl)-N,N-dimethylbenzene sulfonamide] here?
Its IC50 is 1000 to 2500 nM.

What about the IC50 [2] of the same compound?
Its IC50 is 1000 to 2500 nM.

And the IC50 [3]?
Its IC50 is greater than 2500 nM.

For `CN(C)S(=O)(=O)c1ccc(-c2[nH]c3nc(N)[nH]c(=O)c3c2-c2cccc(CO)c2)cc1` [Example 4, 4-(2-Amino-5-(3-(hydroxymethyl)phenyl)-4-oxo-4,7-dihydro-3H-pyrrolo [2,3-d]pyrimidin-6-yl)-N,N-dimethyl-benzene sulfonamide], which IC50 [1] is on record?
The IC50 was 500 to 1000 nM.

And the IC50 [2]?
The IC50 was 500 to 1000 nM.

What about the IC50 [3] of the same compound?
Its IC50 is 1000 to 2500 nM.

How did the IC50 [1] turn out when `COc1cccc(-c2c(-c3ccc(S(=O)(=O)N(C)C)cc3)[nH]c3nc(N)[nH]c(=O)c23)c1OC` [Example 43, 4-(2-Amino-5-(2,3-dimethoxyphenyl)-4-oxo-4,7-dihydro-3H-pyrrolo[2,3-d]pyrimidin-6-yl)-N,N-dimethylbenzene sulfonamide] was run?
Its IC50 is 1000 to 2500 nM.

And the IC50 [2]?
Its IC50 is 1000 to 2500 nM.

What about the IC50 [3] of the same compound?
Its IC50 is greater than 2500 nM.

`COc1ccc(OC)c(-c2c(-c3ccc(S(=O)(=O)N(C)C)cc3)[nH]c3nc(N)[nH]c(=O)c23)c1` [Example 25, 4-(2-Amino-5-(2,5-dimethoxyphenyl)-4-oxo-4,7-dihydro-3H-pyrrolo[2,3-d]pyrimidin-6-yl)-N,N-dimethylbenzene sulfonamide] was tested. Which IC50 [1] did it give?
The IC50 was 500 to 1000 nM.

What about the IC50 [2] of the same compound?
The IC50 was 500 to 1000 nM.

And the IC50 [3]?
The IC50 was greater than 2500 nM.

With `COc1cc(C(N)=O)ccc1-c1c(-c2ccc(S(=O)(=O)N(C)C)cc2)[nH]c2nc(N)[nH]c(=O)c12` [Example 23, 4-(2-Amino-6-(4-(N,N-dimethylsulfamoyl)phenyl)-4-oxo-4,7-dihydro-3H-pyrrolo[2,3-d]pyrimidin-5-yl)-3-methoxy-benzamide] as the compound, how does the IC50 [1] read?
Its IC50 is 500 to 1000 nM.

What about the IC50 [2] of the same compound?
The IC50 was 500 to 1000 nM.

What about the IC50 [3] of the same compound?
Its IC50 is greater than 2500 nM.

With `Cc1cccc(-c2c(-c3cccc(C(=O)N(C)C)c3)[nH]c3nc(N)[nH]c(=O)c23)c1` [Example 61, 3-(2-Amino-4-oxo-5-(3-tolyl)-4,7-dihydro-3H-pyrrolo [2,3-d]pyrimidin-6-yl)-N,N-dimethyl-benzamide] as the compound, how does the IC50 [1] read?
Its IC50 is 1000 to 2500 nM.

And the IC50 [2]?
Its IC50 is 1000 to 2500 nM.

And the IC50 [3]?
Its IC50 is greater than 2500 nM.
